Biological target: T1, Cbl-b (Homo sapiens, UniProt Q13191)
T1 construct: Cbl-b-HiBit KI Jurkat Cells were purchased from Promega; host or cells: Cbl-b-HiBiT knock-in Jurkat cells
Experiment: Cbl-b Degradation Method B (Nano-Glo HiBiT lytic detection)
Assay type: cell-based
Details: Cbl-b-HiBit KI Jurkat Cells, incubated at least 6-24 hours; for DC50: half maximal degradation, read-out: Cbl-b Degredation Method B IC50; for Dmax: maximum degradation observed, read-out: Cbl-b Degredation Method B Dmax (%)
How it was run: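 An 11-point, 3-fold compound dilution was applied for 6-24 hours to Jurkat cells carrying HiBiT-tagged endogenous Cbl-b. Lytic HiBiT luminescence quantified residual protein. Outputs are DC50 and Dmax relative to DMSO control.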

T1 sequence (Q13191 whole entry): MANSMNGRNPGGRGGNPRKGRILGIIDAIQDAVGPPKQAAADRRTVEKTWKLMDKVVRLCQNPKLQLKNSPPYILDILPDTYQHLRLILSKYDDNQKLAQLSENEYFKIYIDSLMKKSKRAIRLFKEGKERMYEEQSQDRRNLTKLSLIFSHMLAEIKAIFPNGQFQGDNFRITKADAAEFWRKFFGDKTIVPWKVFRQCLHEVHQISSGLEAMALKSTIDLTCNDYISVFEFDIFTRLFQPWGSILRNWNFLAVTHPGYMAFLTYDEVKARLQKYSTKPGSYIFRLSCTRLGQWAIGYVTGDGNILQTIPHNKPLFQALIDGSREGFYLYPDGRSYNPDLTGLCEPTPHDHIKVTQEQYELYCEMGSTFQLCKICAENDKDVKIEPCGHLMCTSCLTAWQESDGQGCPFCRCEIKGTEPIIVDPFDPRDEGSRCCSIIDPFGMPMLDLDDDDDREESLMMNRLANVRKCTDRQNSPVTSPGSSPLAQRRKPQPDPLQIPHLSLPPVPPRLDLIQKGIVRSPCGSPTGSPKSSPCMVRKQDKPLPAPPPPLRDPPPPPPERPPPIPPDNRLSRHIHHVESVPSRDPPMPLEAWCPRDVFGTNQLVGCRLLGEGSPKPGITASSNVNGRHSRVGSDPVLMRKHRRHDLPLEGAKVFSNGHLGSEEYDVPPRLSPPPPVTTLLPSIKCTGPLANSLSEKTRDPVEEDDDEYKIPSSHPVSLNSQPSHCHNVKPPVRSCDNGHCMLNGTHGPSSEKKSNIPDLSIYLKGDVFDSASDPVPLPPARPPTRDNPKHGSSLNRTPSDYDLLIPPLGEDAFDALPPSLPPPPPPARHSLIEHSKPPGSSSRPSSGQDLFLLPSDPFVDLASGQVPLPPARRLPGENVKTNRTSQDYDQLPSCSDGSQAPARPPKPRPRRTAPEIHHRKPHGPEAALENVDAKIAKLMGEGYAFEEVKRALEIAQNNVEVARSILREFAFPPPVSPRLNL

| SMILES | DC50 [µM] | Dmax [%] |
| --- | --- | --- |
| C[C@@H]1c2nc(N3CCC(O[C@H]4CC[C@H](CN5CCN(Cc6cc7c(c(C(F)(F)F)c6)CN(c6cccc(C8(Cc9nncn9C)CC(C#N)C8)c6)C7=O)C(C)(C)C5)CC4)CC3)ccc2C(=O)N1C1CCC(=O)NC1=O (single isomer, unassigned) [Example 308, (1r***,3r***)-3-(3-{6-[(2,2-dimethyl-4-{[(1r**,4r**)-4-({1-[(7R*)-6-(2,6-dioxopiperidin-3-yl)-7-methyl-5-oxo-5H,6H,7H-pyrrolo[3,4-b]pyridin-2-yl]piperidin-4-yl}oxy)cyclohexyl]methyl}piperazin-1-yl)methyl]-1-oxo-4-(trifluoromethyl)-2,3-dihydro-1H-isoindol-2-yl}phenyl)-3-[(4-methyl-4H-1,2,4-triazol-3-yl)methyl]cyclobutane-1-carbonitrile] | > 0.5 |  |
| Cn1cnnc1CC1(c2cccc(N3Cc4c(cc(CN5CCN(CCN(C)[C@H]6C[C@H](Oc7ccc8c(c7)C(=O)N(C7CCC(=O)NC7=O)C8=O)C6)CC5)cc4C(F)(F)F)C3=O)c2)COC1 (some centres unmarked) [Example 63, 2-(2,6-dioxopiperidin-3-yl)-5-[(1r,3r)-3-{methyl[2-(4-{[2-(3-{3-[(4-methyl-4H-1,2,4-triazol-3-yl)methyl]oxetan-3-yl}phenyl)-3-oxo-7-(trifluoromethyl)-2,3-dihydro-1H-isoindol-5-yl]methyl}piperazin-1-yl)ethyl]amino}cyclobutoxy]-2,3-dihydro-1H-isoindole-1,3-dione] | > 0.5 |  |
| CC1c2nc(N3CCC(O[C@H]4CC[C@H](CN5CCN(Cc6cc7c(c(C(F)(F)F)c6)CN(c6cccc([C@]8(Cc9nncn9C)C[C@@H](C#N)C8)c6)C7=O)C(C)(C)C5)CC4)CC3)ccc2C(=O)N1C1CCC(=O)NC1=O (some centres unmarked) [Example 152, 3-[3-[6-[[4-[[4-[[1-[6-(2,6-dioxo-3-piperidyl)-7-methyl-5-oxo-7H-pyrrolo[3,4-b]pyridin-2-yl]-4-piperidyl]oxy]cyclohexyl]methyl]-2,2-dimethyl-piperazin-1-yl]methyl]-1-oxo-4-(trifluoromethyl)isoindolin-2-yl]phenyl]-3-[(4-methyl-1,2,4-triazol-3-yl)methyl]cyclobutanecarbonitrile] | < 0.005 | 35 to 70 |
| Cn1cnnc1C[C@]1(c2cccc(N3Cc4c(cc(CN5CCN(C[C@H]6CC[C@H](OC7CCN(c8ccc9c(ccn9C9CCC(=O)NC9=O)c8)CC7)CC6)CC5)cc4C(F)(F)F)C3=O)c2)C[C@H](C#N)C1 (some centres unmarked) [Example 226, (1r,3r)-3-[(4-methyl-4H-1,2,4-triazol-3-yl)methyl]-3-(3-{1-oxo-6-[(4-{[(1r,4r)-4-({1-[1-(2,6-dioxopiperidin-3-yl)-1H-indol-5-yl]piperidin-4-yl}oxy)cyclohexyl]methyl}piperazin-1-yl)methyl]-4-(trifluoromethyl)-2,3-dihydro-1H-isoindol-2-yl}phenyl)cyclobutane-1-carbonitrile] | < 0.005 | 35 to 70 |
| C[C@@H]1CN(CC2CCC(OC3CCN(c4ccc5c(n4)[C@@H](C)N(C4CCC(=O)NC4=O)C5=O)CC3)CC2)CCN1Cc1cc2c(c(C(F)(F)F)c1)CN(c1cccc([C@]3(Cc4nncn4C)C[C@H](C#N)C3)c1)C2=O (single isomer, unassigned) [Example 240, (1rs&,3rs&)-3-[3-(6-{[(2R)-2-methyl-4-{[(1rs,4rs)-4-({1-[(7R*)-6-(2,6-dioxopiperidin-3-yl)-7-methyl-5-oxo-5H,6H,7H-pyrrolo[3,4-b]pyridin-2-yl]piperidin-4-yl}oxy)cyclohexyl]methyl}piperazin-1-yl]methyl}-1-oxo-4-(trifluoromethyl)-2,3-dihydro-1H-isoindol-2-yl)phenyl]-3-[(4-methyl-4H-1,2,4-triazol-3-yl)methyl]cyclobutane-1-carbonitrile] | > 0.5 |  |
| Cn1cnnc1C[C@]1(c2cccc(N3Cc4c(cc(CN5CCN(C[C@H]6CC[C@H](OC7CCN(c8ccc9c(c8F)CN(C8CCC(=O)NC8=O)C9=O)CC7)CC6)CC5)cc4C(F)(F)F)C3=O)c2)C[C@@H](C#N)C1 (some centres unmarked) [Example 14, (1s, 3s)-3-[(4-methyl-4H-1,2,4-triazol-3-yl)methyl]-3-(3-{1-oxo-6-[(4-{[(1r, 4r)-4-({1-[2-(2,6-dioxopiperidin-3-yl)-4-fluoro-1-oxo-2,3-dihydro-1H-isoindol-5-yl]piperidin-4-yl}oxy)cyclohexyl]methyl}piperazin-1-yl)methyl]-4-(trifluoromethyl)-2,3-dihydro-1H-isoindol-2-yl}phenyl)cyclobutane-1-carbonitrile] | < 0.005 | 35 to 70 |
| Cn1cnnc1CC1(c2cccc(N3Cc4c(cc(CN5CCC[C@H](CN6CCN(C[C@H]7CC[C@@H](OC8CCN(c9ccc%10c(c9F)CN(C9CCC(=O)NC9=O)C%10=O)CC8)CC7)CC6(C)C)C5)cc4C(F)(F)F)C3=O)c2)CC1 (stereo partly drawn) [Example 264, 3-[4-fluoro-1-oxo-5-(4-{[(1r,4r)-4-[(3,3-dimethyl-4-{[(3S)-1-{[2-(3-{1-[(4-methyl-4H-1,2,4-triazol-3-yl)methyl]cyclopropyl}phenyl)-3-oxo-7-(trifluoromethyl)-2,3-dihydro-1H-isoindol-5-yl]methyl}piperidin-3-yl]methyl}piperazin-1-yl)methyl]cyclohexyl]oxy}piperidin-1-yl)-2,3-dihydro-1H-isoindol-2-yl]piperidine-2,6-dione] | < 0.005 | > 70 |
| Cn1cnnc1CC1(c2cccc(N3Cc4c(cc(CN5CCC[C@H](CN6CCN(C(=O)[C@H]7CC[C@@H](OC8CCN(c9ccc%10c(c9F)CN(C9CCC(=O)NC9=O)C%10=O)CC8)CC7)CC6)C5)cc4C(F)(F)F)C3=O)c2)COC1 (stereo partly drawn) [Example 113, 3-[4-fluoro-1-oxo-5-(4-{[(1r,4r)-4-(4-{[(3S)-1-{[2-(3-{3-[(4-methyl-4H-1,2,4-triazol-3-yl)methyl]oxetan-3-yl}phenyl)-3-oxo-7-(trifluoromethyl)-2,3-dihydro-1H-isoindol-5-yl]methyl}piperidin-3-yl]methyl}piperazine-1-carbonyl)cyclohexyl]oxy}piperidin-1-yl)-2,3-dihydro-1H-isoindol-2-yl]piperidine-2,6-dione] | < 0.005 | 35 to 70 |
| Cc1cc(N2C[C@@H]3C[C@H]2CN3CC2CCC3(CC2)CN(c2cc4c(c(C(F)(F)F)c2)CN(c2cccc([C@]5(Cc6nncn6C)C[C@@H](C#N)C5)c2)C4=O)C3)c(F)c2c1C(=O)N(C1CCC(=O)NC1=O)C2 (stereo partly drawn) [Example 271, (1r,3r)-3-{3-[6-(7-{[(1S,4S)-5-[2-(2,6-dioxopiperidin-3-yl)-4-fluoro-7-methyl-1-oxo-2,3-dihydro-1H-isoindol-5-yl]-2,5-diazabicyclo[2.2.1]heptan-2-yl]methyl}-2-azaspiro[3.5]nonan-2-yl)-1-oxo-4-(trifluoromethyl)-2,3-dihydro-1H-isoindol-2-yl]phenyl}-3-[(4-methyl-4H-1,2,4-triazol-3-yl)methyl]cyclobutane-1-carbonitrile] | 0.005 to 0.05 | 35 to 70 |
| Cn1cnnc1CC1(c2cccc(N3Cc4c(cc(CN5CCN(CC6CCN(c7ccc(N8CCC(=O)NC8=O)c(F)c7)CC6)CC5)cc4C(F)(F)F)C3=O)c2)COC1 [Example 57, 1-(2-fluoro-4-{4-[(4-{[2-(3-{3-[(4-methyl-4H-1,2,4-triazol-3-yl)methyl]oxetan-3-yl}phenyl)-3-oxo-7-(trifluoromethyl)-2,3-dihydro-1H-isoindol-5-yl]methyl}piperazin-1-yl)methyl]piperidin-1-yl}phenyl)-1,3-diazinane-2,4-dione] | > 0.5 |  |
| Cn1cnnc1CC1(c2cccc(N3Cc4c(cc(CN5CCC[C@H](CN6CC[C@@H](OC7CCN(c8ccc9c(c8F)CN(C8CCC(=O)NC8=O)C9=O)CC7)CC6(C)C)C5)cc4C(F)(F)F)C3=O)c2)CC(C#N)C1 (single isomer, unassigned) [Example 290, (1r**,3r**)-3-[3-(6-{[(3S)-3-{[(4R*)-4-({1-[2-(2,6-dioxopiperidin-3-yl)-4-fluoro-1-oxo-2,3-dihydro-1H-isoindol-5-yl]piperidin-4-yl}oxy)-2,2-dimethylpiperidin-1-yl]methyl}piperidin-1-yl]methyl}-1-oxo-4-(trifluoromethyl)-2,3-dihydro-1H-isoindol-2-yl)phenyl]-3-[(4-methyl-4H-1,2,4-triazol-3-yl)methyl]cyclobutane-1-carbonitrile] | > 0.5 |  |
| CC1c2nc(N3CCC(O[C@H]4CC[C@H](CN5CCN(Cc6cc(C(F)(F)F)c7cn(-c8cccc(C9(Cc%10nncn%10C)COC9)c8)nc7c6)CC5)CC4)CC3)ccc2C(=O)N1C1CCC(=O)NC1=O (some centres unmarked) [Example 216, 3-[7-methyl-5-oxo-2-(4-{[(1r,4r)-4-[(4-{[2-(3-{3-[(4-methyl-4H-1,2,4-triazol-3-yl)methyl]oxetan-3-yl}phenyl)-4-(trifluoromethyl)-2H-indazol-6-yl]methyl}piperazin-1-yl)methyl]cyclohexyl]oxy}piperidin-1-yl)-5H,6H,7H-pyrrolo[3,4-b]pyridin-6-yl]piperidine-2,6-dione] | < 0.005 | < 35 |
| C[C@@H]1c2nc(N3CCC(O[C@H]4CC[C@H](CN5CCN(Cc6cc7c(c(C(F)(F)F)c6)CN(c6cccc(C8(Cc9nncn9C)CC(C#N)C8)c6)C7=O)C6(CC6)C5)CC4)CC3)ccc2C(=O)N1C1CCC(=O)NC1=O (single isomer, unassigned) [Example 305, (1r***,3r***)-3-[(4-methyl-4H-1,2,4-triazol-3-yl)methyl]-3-(3-{1-oxo-6-[(7-{[(1r**,4r**)-4-({1-[(7R*)-6-(2,6-dioxopiperidin-3-yl)-7-methyl-5-oxo-5H,6H,7H-pyrrolo[3,4-b]pyridin-2-yl]piperidin-4-yl}oxy)cyclohexyl]methyl}-4,7-diazaspiro[2.5]octan-4-yl)methyl]-4-(trifluoromethyl)-2,3-dihydro-1H-isoindol-2-yl}phenyl)cyclobutane-1-carbonitrile] | > 0.5 |  |

Reference: US20260184710A1, “CASITAS B-LINEAGE LYMPHOMA PROTOONCOGENE B (CBL-B) DEGRADING COMPOUNDS AND ASSOCIATED METHODS OF USE” (Arvinas Operations, Inc., priority 2022, published 2026)
